Assay results published in US20020115728A1, “Compositions and methods for treating cardiovascular disorders” (priority 2000, published 2002).
Where two headings read alike, the source gives them in different places. Marks after values point to notes of the source that are not given here. Each block holds one compound with its values, some of them ahead of it.

How the values were obtained:
[1] = test system: plasma lipids obtained from apoE−/− mice; assay: Ex vivo oxidizability of plasma lipids (aqueous peroxyl radical generator); format: in vivo; conditions: pooled plasma of probucol-treated apoE−/− mice, 5 mM MPH, 37° C.
Description: Pooled plasma obtained from control (open symbols) or probucol-treated (closed symbols) mice was exposed to 5 mM of the aqueous peroxyl radical generator MPH and incubated under air at 37° C. […] Data shown are mean±SD of a single oxidation experiment performed in triplicate using pooled plasma. Where error bars are not shown, error is smaller than the symbol.
Plasma was obtained from control and probucol mice and aliquots frozen for subsequent determination of lipids. Separate aliquots were acidified with metaphosphoric acid (5%) to stabilize vitamin C prior to freezing and storage at −80° C. The remainder was pooled appropriately and used for ex vivo oxidation initiated by the peroxyl radical generator AAPH and lipoprotein separation by FPLC with UV280nm detection, as described in J Lipid Res. 1999;40:1104-1112.
Enhanced resistance of plasma lipoproteins to oxidation is often used as a measure of antioxidant efficacy. Therefore, we examined MPH-induced oxidation of pooled plasma from control and treated animals. […] These observations can be explained readily on the basis of tocopherol-mediated peroxidation.

[2] = test system: apoE−/−;LDLr−/− mice; assay: Plasma lipid and vitamin E levels; format: in vivo; conditions: chow with 0.03% bisphenol, 14 weeks
Description: Male apoE−/−;LDLr−/− mice (59 total), were maintained on standard R3 chow from weaning to 8 weeks of age (young controls, n=9). Thereafter mice received R3 chow with (n=25) or without supplemented bisphenol (n=25) for an additional 14 weeks. Standard R3-mouse chow was fortified with bisphenol at 0.03% (w/w), a level of supplementation shown in pilot experiments to afford circulating concentrations of the drug of ˜200 μM, considered suitable to test the effect of the co-antioxidant on atherogenesis in this animal model. At 22 weeks of age 10 and 15 mice of each group were used for biochemical and histological analyses, respectively. […]
Analyses of oxidised and non-oxidised lipids were carried out by RP-HPLC as described in Example 1 except that in some instances UV234 nm rather than post-column chemiluminescence detection was used to measure C18:2-OOH and the corresponding hydroxides (together referred to as CE-O(O)H) which show similar retention times under these chromatographic conditions. α-TQ, α-TOH, α-tocotrienol, D-isosascorbate and ascorbate were determined by HPLC with electrochemical detection. For oxidation of plasma, unesterified cholesterol (which remained non-oxidised in these experiments) was employed as internal standard for all polyunsaturated, lipid-soluble components analysed. […] All compounds were quantified by peak area comparison with authentic standards. […]

[3] = Plasma drug level of bisphenol; format: in vivo, mice; conditions: for concentration at 14 weeks: male, apoE−/−;LDLr−/−, mouse, plasma, oral, 0.03 % (w/w) in chow, mice ranked by plasma drug level
Description: Male apoE−/−;LDLr−/− mice (59 total), were maintained on standard R3 chow from weaning to 8 weeks of age (young controls, n=9). Thereafter mice received R3 chow with (n=25) or without supplemented bisphenol (n=25) for an additional 14 weeks. Standard R3-mouse chow was fortified with bisphenol at 0.03% (w/w), a level of supplementation shown in pilot experiments to afford circulating concentrations of the drug of ˜200 μM, considered suitable to test the effect of the co-antioxidant on atherogenesis in this animal model. At 22 weeks of age 10 and 15 mice of each group were used for biochemical and histological analyses, respectively. Due to the small size, it was necessary to pool aortas to yield sufficient material for biochemical analyses.
Analyses of oxidised and non-oxidised lipids were carried out by RP-HPLC as described in Example 1 except that in some instances UV234 nm rather than post-column chemiluminescence detection was used to measure C18:2-OOH and the corresponding hydroxides (together referred to as CE-O(O)H) which show similar retention times under these chromatographic conditions. α-TQ, α-TOH, α-tocotrienol, D-isosascorbate and ascorbate were determined by HPLC with electrochemical detection. For oxidation of plasma, unesterified cholesterol (which remained non-oxidised in these experiments) was employed as internal standard for all polyunsaturated, lipid-soluble components analysed. Bisphenol and diphenoquinone were analysed by RP-HPLC: flow 1.5 mL/min, 100% solvent A (MeCN/MeOH/H20 10:10:3, v/v/v) for 0-15 min monitored at 270 nm, followed by 50% solvent A and B (MeCN/MeOH 1:1, v/v) for 15-22 min at 242 nm and then 100% B for 22-28 min at 420 nm. Bisphenol and diphenoquinone eluted at 9 and 27 min, respectively. All compounds were quantified by peak area comparison with authentic standards. […]
Unless otherwise stated lipid and antioxidant levels are expressed as pmol/mg protein. LH, lipid containing bisallylic hydrogens. §Values are expressed as nmol/mg protein. […]

[4] = test system: plasma from apoE−/−;LDLr−/− mice; assay: Ex vivo plasma lipid peroxidation initiated by aqueous peroxyl radicals (AAPH); format: in vivo
Description: Pooled plasma obtained from at least 3 mice receiving control diet (circles) or diet supplemented with bisphenol (squares) were treated with 5 mM AAPH and incubated at 37° C. At the times indicted aliquots were removed and analysed for α-TOH (A) and CE-O(O)H (B). 100% α-TOH levels correspond to 28±3 and 20±2 μM for control and H 212/43 plasma, respectively. Data represents the mean±SD (n=4 independent experiments).
Oxidation of plasma, pooled from=3 mice was carried out by addition of the peroxyl radical generator (final concentrations 5 mM) and incubating the reaction mixture at 37° C. under air. Aliquots (50 μL) of the reaction mixture were removed, extracted in methanol/hexane (1:5, v/v), and the consumption of antioxidants and accumulation of lipid oxidation products determined.

[5] = test system: tocopherol-mediated peroxidation (TMP); assay: Anti-TMP index; format: biochemical
[6] = test system: α-tocopheroxyl radical; assay: Tocopheroxyl radical attenuating ability (TRAA); format: biochemical; conditions: kobs with (+) or without (−) test compound
[7] = test system: atherosclerotic lesions in apoE−/− mice; assay: Atherosclerotic lesion cross-section areas at four aortic sites (morphometry); format: in vivo
Description: Male C57BL/6J mice, homozygous for the disrupted apoE gene (apoE−/−) were fed standard chow (Lab-Feed, Sydney, Australia) until aged 10 weeks. […] The high fat diet (control and probucol-supplemented) was prepared, according to the specifications of the Harlan Teklad diet TD88137. […]
Lesions were assessed at four different sites along the aorta, in the aortic root, in the aortic arch, the descending thoracic and in the proximal abdominal aorta, and cross-sections (2-3 μm thick) were prepared and stained with Weigert's hematoxylin-van Gieson.

[8] = test system: ballooned New Zealand White rabbits; assay: Re-endothelialization in cholesterol-fed and normal chow fed ballooned rabbits; format: in vivo
Text: Results are from two separate experiments and represent mean±SD of six (cholesterol diet) and five animals (normal diet) per group. Asterisk indicates statistically significant higher values compared with corresponding controls, with p-values of 0.002, 0.015 and 0.025 for *, ** and * respectively.

[9] = pooled plasma of bisphenol-treated mice, 5 mM AAPH, 37° C., 12 h
[10] = apoE−/− mice, 1% probucol, 24 weeks
[11] = 2% Cholesterol-fed ballooned rabbits
[12] = Normal Chow fed ballooned rabbits

circulating concentrations of the drug, pilot experiments ([3]; chow fortified with bisphenol at 0.03% (w/w)): ~200 µM
concentration at 14 weeks ([3]; Bisphenol [high] aorta pool, read-out: plasma concentration of bisphenol, high group): 212 ± 50 µM
concentration at 14 weeks ([3]; Bisphenol [low] aorta pool, read-out: plasma concentration of bisphenol, low group): 106 ± 40 µM
Compound: CC(C)(C)c1cc(-c2cc(C(C)(C)C)c(O)c(C(C)(C)C)c2)cc(C(C)(C)C)c1O [Bisphenol, bisphenol]
fate of the compound present in plasma during the oxidation period [1]: oxidised into diphenoquinone
Plasma Triglycerides [2]: 6.3 (0.5) mm
CE-OOH detected after 12 h of ex vivo oxidation [4, 9]: < 1 µM
α-TOH after 12 h of ex vivo oxidation [4, 9]: remained unaltered
100% α-TOH level of plasma before oxidation ([4]; pooled plasma of mice receiving bisphenol diet): 20 ± 2 µM
Anti-TMP index [5]: 3.2
TRAA (decay of tocopheroxyl radical; kobs(+)/kobs(−)) [6]: Immediate decay

Compound: CC(C)(Sc1cc(C(C)(C)C)c(O)c(C(C)(C)C)c1)Sc1cc(C(C)(C)C)c(O)c(C(C)(C)C)c1 [Probucol, probucol]
lesion formation at the abdominal aorta [7, 10]: effectively prevented lesion formation
lesions in the aortic arch and descending thoracic aorta vs control [7, 10]: significantly smaller
lesion cross-section area, Aortic Root ([7]; apoE−/− mice, high fat diet with 1% (w/w) probucol, 24 weeks, aortic root): 1180 μm^2 × 10^−3
lesion cross-section area, Abdominal Aorta ([7]; apoE−/− mice, high fat diet with 1% probucol, 24 weeks, abdominal aorta): 12 ± 12(3) μm^2 × 10^−3
lesion cross-section area, Arch ([7]; apoE−/− mice, high fat diet with 1% probucol, 24 weeks, aortic arch): 140 ± 34 μm^2 × 10^−3
lesion cross-section area, Descending Thoracic Aorta ([7]; apoE−/− mice, high fat diet with 1% probucol, 24 weeks, descending thoracic aorta): *5 ± 4 (8)* μm^2 × 10^−3
Treatment effect on lesion area, Abdominal Aorta ([7]; probucol vs controls, abdominal aorta): 10%
Treatment effect on lesion area, Arch ([7]; probucol vs controls, aortic arch): 44%
Treatment effect on lesion area, Aortic Root ([7]; probucol vs controls, aortic root): 146%
Treatment effect on lesion area, Descending Thoracic Aorta ([7]; probucol vs controls, descending thoracic aorta): 15%
fate of the compound present in plasma during the oxidation period [1]: remained unchanged
onset and initial rate of CE-O(O)H accumulation vs control plasma ([1]; air): delayed and decreased
Re-endothelialized area, Abdominal Aorta [8, 11]: 55.1 ± 7.1** % total surface area
Re-endothelialized area, Thoracic Aorta [8, 11]: 57.3 ± 5.1* % total surface area
Re-endothelialized area, Abdominal Aorta [8, 12]: 48.2 ± 9.0*** % total surface area
Re-endothelialized area, Thoracic Aorta [8, 12]: 50.4 ± 6.4** % total surface area
